According to ChEMBL document CHEMBL4818998, “Melatonin derivatives combat with inflammation-related cancer by targeting the Main Culprit STAT3” (Eur J Med Chem, 2021):
Active and inactive are the calls of the source. No cut-off for these calls is given here.

Assays:
[1] = Toxicity in Kunming mouse assessed as feeding frequency and amount at 1000 mg/kg, ig measured for 14 days; assay type: organism-based; details: in vivo, po, 336 h, time 14 day
[2] = tested on: AGS; assay: Antiproliferative activity against human AGS cells assessed as inhibition of cell proliferation measured after 72 hrs by MTT assay; assay type: functional, cell-based
[3] = tested on: HCT-116; assay: Induction of apoptosis in human HCT-116 cells assessed as viable cells at 10 uM measured after 48 hrs by Annexin V-FITC/PI staining based flow cytometry (reference value: 94.9%); assay type: functional; details: read-out: Activity
[4] = Ratio of AUC (0 to t) to observed AUC (0 to infinity) in Sprague-Dawley rat at 100 mg/kg, ig measured for 24 hrs by LC-MS analysis; assay type: ADME, organism-based; details: in vivo, po
[5] = tested on: HCT-116; assay: Cytotoxicity against human HCT-116 cells assessed as reduction in cell viability at <=20 uM measured after 48 hrs by CCK8 assay; assay type: cell-based; details: hct-116, 48 h
[6] = target: Signal transducer and activator of transcription 3 (Homo sapiens) (UniProt P40763); assay: Inhibition of STAT3 in human MGC-803 cells assessed as inhibition of nuclear translocation of STAT3 at 10 uM measured after 3 hrs by Hoechst/fluorochrome-conjugated antibody staining based confocal laser microscopy; assay type: cell-based
[7] = tested on: HCT-116; assay: Induction of apoptosis in human HCT-116 cells assessed as early apoptotic cells at 5 uM measured after 48 hrs by Annexin V-FITC/PI staining based flow cytometry (reference value: 2.14%); assay type: functional
[8] = tested on: HCT-116; assay: Induction of apoptosis in human HCT-116 cells assessed as late apoptotic cells at 5 uM measured after 48 hrs by Annexin V-FITC/PI staining based flow cytometry (reference value: 1.42%); assay type: functional
[9] = tested on: HCT-116; assay: Induction of ROS generation in human HCT-116 cells at 2.5 to 15 uM measured after 36 hrs by DCFH-DA staining based fluorescence microscopic analysis; assay type: functional, cell-based; details: dose 2.5-15 µM
[10] = Cytotoxicity against LPS-stimulated mouse RAW264.7 cells assessed as cell viability at 5 to 20 microM measured after 24 hrs; assay type: cell-based; details: LPS-stimulated RAW264.7 cells, dose 5-20 µM, read-out: Activity
[11] = tested on: HCT-116; assay: Induction of apoptosis in human HCT-116 cells assessed as […] of cleaved caspase-3 expression at 2.5 to 10 uM measured after 48 hrs by western blot assay; assay type: functional, cell-based; details: dose 2.5-10 µM
[12] = Observed apparent oral clearance in Sprague-Dawley rat at 100 mg/kg measured for 24 hrs by LC-MS analysis; assay type: ADME, organism-based; details: in vivo
[13] = tested on: MGC-803; assay: Downregulation of STAT3 expression in human MGC-803 cells at 10 uM measured after 3 hrs by Hoechst/fluorochrome-conjugated antibody staining based confocal laser microscopy; assay type: functional, cell-based
[14] = tested on: HepG2; assay: Antiproliferative activity against human HepG2 cells assessed as inhibition of cell proliferation measured after 72 hrs by MTT assay; assay type: functional, cell-based; details: HepG2, 72 h
[15] = tested on: MGC-803; assay: Cytotoxicity against human MGC-803 cells assessed as reduction in cell viability at <20 uM measured after 24 hrs by CCK8 assay; assay type: cell-based; details: mgc-803, 24 h
[16] = tested on: HCT-116; assay: Antiproliferative activity against human HCT-116 cells assessed as inhibition of cell proliferation measured after 72 hrs by MTT assay; assay type: functional, cell-based; details: HCT-116, 72 h
[17] = Cmax in Sprague-Dawley rat at 100 mg/kg, ig measured for 24 hrs by LC-MS analysis; assay type: ADME, organism-based; design: route intragastric, time 24 hrs, dose 100 mg/kg; details: in vivo, po
[18] = target: Signal transducer and activator of transcription 3 (Homo sapiens) (UniProt P40763); assay: Inhibition of STAT3 in human MGC-803 cells assessed as decrease in STAT3 phosphorylation at 4 to 16 uM measured after 48 hrs by western blot assay; assay type: cell-based; details: dose 4-16 µM
[19] = tested on: HCT-116; assay: Induction of apoptosis in human HCT-116 cells assessed as early apoptotic cells at 2.5 uM measured after 48 hrs by Annexin V-FITC/PI staining based flow cytometry assay (reference value: 2.14%); assay type: functional
[20] = tested on: HCT-116; assay: Induction of apoptosis in human HCT-116 cells assessed as late apoptotic cells at 10 uM measured after 48 hrs by Annexin V-FITC/PI staining based flow cytometry (reference value: 1.42%); assay type: functional
[21] = tested on: MGC-803; assay: Downregulation of STAT3 expression in human MGC-803 cells at 4 to 16 uM measured after 48 hrs by western blot assay; assay type: functional, cell-based; details: dose 4-16 µM
[22] = target: Signal transducer and activator of transcription 3 (Homo sapiens) (UniProt P40763); assay: Inhibition of STAT3 in human MGC-803 cells assessed as decrease in Bcl-2 expression at 4 to 16 uM measured after 48 hrs by western blot assay; assay type: cell-based; details: dose 4-16 µM
[23] = target: Signal transducer and activator of transcription 3 (Homo sapiens) (UniProt P40763); assay: Inhibition of STAT3 in human HCT-116 cells assessed as inhibition of nuclear translocation of STAT3 at 10 uM measured after 3 hrs by Hoechst/fluorochrome-conjugated antibody staining based confocal laser microscopy; assay type: cell-based
[24] = tested on: HCT-116; assay: Induction of apoptosis in human HCT-116 cells assessed as late apoptotic cells at 2.5 uM measured after 48 hrs by Annexin V-FITC/PI staining based flow cytometry assay (reference value: 1.42%); assay type: functional
[25] = tested on: A549; assay: Antiproliferative activity against human A549 cells assessed as inhibition of cell proliferation measured after 72 hrs by MTT assay; assay type: functional, cell-based; details: A549, 72 h
[26] = Cytotoxicity against human HCT-116 cells assessed as cell viability at <36 uM measured after 24 hrs by CCK8 assay; assay type: cell-based; details: read-out: Activity
[27] = tested on: RAW264.7; assay: Anti-inflammatory activity against mouse RAW264.7 cells assessed as decrease in LPS-induced TNF-alpha secretion measured after 24 hrs by ELISA; assay type: functional, cell-based; details: dose 5-20 µM
[28] = tested on: HCT-116; assay: Induction of apoptosis in human HCT-116 cells assessed as viable cells at 5 uM measured after 48 hrs by Annexin V-FITC/PI staining based flow cytometry (reference value: 94.9%); assay type: functional; details: read-out: Activity
[29] = tested on: MGC-803; assay: Antiproliferative activity against human MGC-803 cells assessed as decrease in cell population at S-phase at 2 to 16 uM measured after 24 hrs by EdU incorporation based fluorescence microscopic analysis; assay type: functional; details: dose 2-16 µM
[30] = Tmax in Sprague-Dawley rat at 100 mg/kg, ig measured for 24 hrs by LC-MS analysis; assay type: ADME, organism-based; details: in vivo, po
[31] = target: Signal transducer and activator of transcription 3 (Homo sapiens) (UniProt P40763); assay: Inhibition of STAT3 in human HCT-116 cells assessed as decrease in Bcl-2 expression at 2.5 to 10 uM measured after 48 hrs by western blot assay; assay type: cell-based; details: dose 2.5-10 µM
[32] = tested on: SGC-7901; assay: Antiproliferative activity against human SGC-7901 cells assessed as inhibition of cell proliferation measured after 72 hrs by MTT assay; assay type: functional, cell-based; details: SGC-7901, 72 h
[33] = tested on: HCT-116; assay: Inhibition of clonogenicity in human HCT-116 cells assessed as reduction in colony formation measured after 9 days by crystal violet staining based analysis; assay type: functional, cell-based; details: dose 1.25-10 µM, time 9.0 day
[34] = tested on: HCT-116; assay: Induction of apoptosis in human HCT-116 cells assessed as formation of apoptotic bodies at 2.5 to 15 uM measured after 48 hrs by Giemsa staining method; assay type: functional, cell-based; details: dose 2.5-15 µM

Chain of Signal transducer and activator of transcription 3 (Homo sapiens) (P40763 whole entry): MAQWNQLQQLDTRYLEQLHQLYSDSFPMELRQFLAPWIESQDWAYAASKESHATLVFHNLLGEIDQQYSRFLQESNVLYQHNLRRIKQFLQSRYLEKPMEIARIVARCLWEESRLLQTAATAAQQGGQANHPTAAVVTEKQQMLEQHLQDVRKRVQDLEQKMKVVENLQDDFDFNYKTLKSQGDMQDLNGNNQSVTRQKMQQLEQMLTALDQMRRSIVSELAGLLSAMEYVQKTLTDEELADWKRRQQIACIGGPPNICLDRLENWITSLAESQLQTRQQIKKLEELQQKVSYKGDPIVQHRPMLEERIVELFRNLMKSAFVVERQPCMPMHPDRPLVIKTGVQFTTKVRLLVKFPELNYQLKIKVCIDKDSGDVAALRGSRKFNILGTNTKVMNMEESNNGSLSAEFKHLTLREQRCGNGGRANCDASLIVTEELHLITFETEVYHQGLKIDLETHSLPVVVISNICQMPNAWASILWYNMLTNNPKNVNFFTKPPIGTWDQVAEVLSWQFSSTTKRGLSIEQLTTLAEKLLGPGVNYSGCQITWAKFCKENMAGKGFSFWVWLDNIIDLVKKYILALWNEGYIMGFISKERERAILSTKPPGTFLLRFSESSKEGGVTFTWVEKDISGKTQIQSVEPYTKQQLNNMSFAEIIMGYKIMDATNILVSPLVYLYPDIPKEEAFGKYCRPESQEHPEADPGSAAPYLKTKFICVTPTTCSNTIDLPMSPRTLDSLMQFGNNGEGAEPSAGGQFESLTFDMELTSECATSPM

Cc1c(Cl)cccc1Nc1ccccc1C(=O)NCCc1c[nH]c2ccccc12
Activity [1]: Non-Toxic
IC50 [2]: 9.12 µM
viability at 10 µM [3]: 58.5%
Ratio AUC [4]: 0.87
Activity [5]: Non-Toxic
inhibition [6]: Active
Activity [7]: 5.44%
Activity [8]: 3.94%
Activity [9]: Active
viability at 24 h [10]: > 80%
Activity [11]: Active
CL/F [12]: 51.75 (mg/kg)/(microg/ml)/hr
inhibition [13]: Active
IC50 [14]: 7.37 µM
Activity [15]: Non-Toxic
IC50 [16]: 8.42 µM
Cmax [17]: 150 ng/mL
inhibition [18]: Active
Activity [19]: 3.48%
Activity [20]: 6.12%
inhibition [21]: Active
inhibition [22]: Active
inhibition [23]: Active
Activity [24]: 3.12%
IC50 [25]: 18.6 µM
viability at 24 h [26]: ≥ 80%
Activity [27]: Dose-Dependent Effect
viability at 5 µM [28]: 87.8%
Activity [29]: Active
Tmax [30]: 1 h
inhibition [31]: Active
IC50 [32]: 15.5 µM
inhibition [33]: Dose-Dependent Effect
Activity [34]: Active
